Experimental data: patent US9550776B2, “Pyridinylpyrazoloquinoline compounds” (Eisai R&D Management Co., Ltd., priority 2013, dated 2017)

Key:
[1] = molecular target: T1, human recombinant PDE9 protein (Homo sapiens, UniProt O76083); assay: PDE9 inhibitory activity test ([3H]-cGMP hydrolysis); format: biochemical
T1 construct: made in house; host or cells: silkworm (pYNG vector, Katakura Industries)
Method: An hsPDE9A 1cDNA fragment was amplified by being based on a base sequence (Accession No.: AF048837) of the hsPDE9A1 registered on GenBank data base, and by using the following sequences (Hokkaido System Science Co., Ltd.) as a primer and Human hippocampus cDNA library (Clontech Laboratories, Inc.) as a template DNA, and using Pfu50 DNA polymerase (Invitrogen Corp.), and by a polymerase chain reaction (PCR) of the following condition.
The condition of PCR: [96° C., 5 min]×1 cycle, [(96° C., 10 sec), (57° C., 5 sec), (72° C., 2 min)]×30 cycles
The obtained hsPDE9A 1cDNA fragment was incorporated in a TOPO-TA cloning vector (Invitrogen Corp.), and the base sequence was checked; and thereafter, the resultant was transfected in a pcDNA 3.1/myc His-tag vector (Invitrogen Corp.) to thereby make a human PDE9 expression vector for mammal cells. The human PDE9 expression vector for mammal cells was transfected with transient expression to an HEK293 cell by using a LIPOFETAMINE 2000 Reagent (Gibco). It was confirmed by Western blot method that the PDE9A expressed in the HEK293 cell, and then, the human PDE9A 1cDNA fragment was transfected in a pYNG vector (Katakura Industries Co., Ltd.) to thereby make an expression vector for insect cells. A supernatant of homogenized silk worm in which a large amount of PDE9 was expressed was purified by an equilibrated Ni column using a buffer A (20 mmol/L Tris-HCl, pH: 8.0, 1 mmol/L DTT, 10 mmol/L imidazole). After 1 hour of mixing of the supernatant and the Ni column, cleaning was carried out using a buffer B (20 mmol/L Tris-HCl, pH: 8.0, 1 mmol/L DTT), and elution was carried out using a buffer C (20 mmol/L Tris-HCl, pH: 8.0, 1 mmol/L DTT, 100 mmol/L imidazole). An elution fraction was preparatively collected to thereby obtain a PDE9 enzyme solution.
To 100 μL of a buffer D (40 mmol/L Tris-HCl, pH: 7.4, 10 mmol/L MgCl2, 1 mM DTT, 2 μM cGMP) solution containing [^3H]-cGMP (0.5 μCi/mL), 10 μL of a compound solution for evaluation (a solution in which a compound was dissolved in DMSO and diluted so that the DMSO concentration became 5%) and 90 μL of a solution prepared by diluting the PDE9 enzyme solution prepared in the above with a buffer E (40 mmol/L Tris-HCl, pH: 7.4, 10 mmol/L MgCl2, 1 mM DTT, 1 mmol/L EGTA) were added under ice cooling. The resultant mixed solution was incubated at 30° C. for 10 min, and thereafter heated for 2 min in boiled water to stop the enzyme reaction of the PDE9. Then, the resultant was returned to room temperature; 50 μL of 5′-Nucleotidase (Biomol GmbH, 10 units/mL) was added thereto; and the resultant was incubated at 30° C. for 10 min to thereby convert [^3H]-5′-GMP formed in the previous reaction to [^3H]-guanosine. 500 μL of an anion exchange resin (Bio-Rad AGl-X2 resin, mesh size: 200-400, H2O:resin=2:1) was added to the resultant reaction liquid, and allowed to stand for 10 min, and thereafter centrifuged (2,000 rpm, 10 min); and a supernatant in which the [^3H]-guanosine was present was transferred to a LumaPlate (PerkinElmer, Inc.), and the radioactivity was measured by a TopCount NXT microplate scintillation and luminescence counter (PerkinElmer, Inc.).
The inhibition percentage of the evaluation compound was calculated using the following expression, taking the radioactivity of a control containing no evaluation compound to be (A), the radioactivity of a blank containing no enzyme to be (B), and the radioactivity of the evaluation compound to be (C). Inhibition percentage=100−{[(C)−(B)]/[(A)−(B)]}×100(%)
The IC50 value for PDE9 of the evaluation compound was determined from inhibition percentage for various concentrations.

cerebrospinal fluid cGMP = assay: Effect on rodent cerebrospinal fluid cGMP; format: in vivo; details: rat (LE), 10 mg/kg p.o., sampling time 2 hr
Method: The test compound was administered to ICR male mice (Charles River Laboratories Japan, Inc.), Sprague-Dawley male rats (SD) (Charles River Laboratories Japan, Inc.) or Long-Evans male rats (LE) (Institute for Animal Reproduction), and the cerebrospinal fluid was then collected under pentobarbital anesthesia and stored at −20° C. cGMP in the cerebrospinal fluid was measured in accordance with the acetylation EIA procedure of cGMP EIA kit (GE Healthcare) or the non-acetylation procedure of cGMP EIA kit (Cayman). The result was an increase (C) in the amount of cGMP of the test compound-administered group (B) relative to the amount of cGMP of the vehicle-administered group (A), and was calculated using the following formula. cGMP increase(C)=[(B)−(A)]/(A)×100(%)

hippocampal cGMP = assay: Effect on rodent hippocampal cGMP; format: in vivo; details: rat (LE), 10 mg/kg p.o., sampling time 2 hr
Method: The test compound was administered to Sprague-Dawley male rats (Charles River Laboratories Japan, Inc.) or Long-Evans male rats (Institute for Animal Reproduction) and then the animals were sacrificed with microwave under pentobarbital anesthesia, and the hippocampus was extracted. After measuring the wet weight, the hippocampus was frozen with liquid nitrogen and stored at −80° C. In the measurement of cGMP in the hippocampus, a 0.5 M perchloric acid/1 mM EDTA solution was added at 5% (w/v) based on the wet weight, and the mixture was homogenized. After the homogenization, the homogenate was centrifuged (10000 rpm, 15 min), and the supernatant was collected. The collected supernatant was neutralized with a 2 M potassium bicarbonate solution and centrifuged (13000 rpm, 10 min). The cGMP concentration in the supernatant was measured in accordance with the non-acetylation EIA procedure of cGMP EIA kit (GE Healthcare). The result was an increase (C) in the amount of cGMP of the test compound-administered group (B) relative to the amount of cGMP of the vehicle-administered group (A), and was calculated using the following formula. cGMP increase(C)=[(B)−(A)]/(A)×100(%)

T1 sequence (O76083 whole entry): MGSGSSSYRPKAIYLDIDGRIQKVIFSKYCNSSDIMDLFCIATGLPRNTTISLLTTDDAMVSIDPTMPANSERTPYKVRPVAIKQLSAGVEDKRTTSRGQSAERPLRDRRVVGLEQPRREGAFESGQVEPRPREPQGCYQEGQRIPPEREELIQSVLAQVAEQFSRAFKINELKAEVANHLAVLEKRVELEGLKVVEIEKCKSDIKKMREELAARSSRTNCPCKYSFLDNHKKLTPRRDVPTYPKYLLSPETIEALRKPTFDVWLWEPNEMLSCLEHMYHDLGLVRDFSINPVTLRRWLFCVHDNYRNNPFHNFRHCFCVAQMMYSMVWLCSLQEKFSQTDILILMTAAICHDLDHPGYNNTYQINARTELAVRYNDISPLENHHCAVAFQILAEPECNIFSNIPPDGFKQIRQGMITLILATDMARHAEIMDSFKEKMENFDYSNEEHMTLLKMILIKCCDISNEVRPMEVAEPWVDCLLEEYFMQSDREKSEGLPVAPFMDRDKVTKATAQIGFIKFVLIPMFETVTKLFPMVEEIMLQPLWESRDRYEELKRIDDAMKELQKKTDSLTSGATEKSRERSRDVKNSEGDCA

For `COc1nc(C)cc(C)c1-c1ccc2c(c1)[nH]c(=O)c1cnn([C@@H]3CCOC[C@@H]3C)c12` (single isomer, unassigned) [Example 2b, (−)-7-(2-Methoxy-4,6-dimethylpyridin-3-yl)-1-((3R*,4R*)-3-methyltetrahydro-2H-pyran-4-yl)-1H-pyrazolo[4,3-c]quinoline-4(5H)-one], the IC50 [1] was 3.7 nM.
With `COc1nc(C)cc(C)c1-c1ccc2c(c1)[nH]c(=O)c1cnn([C@@H]3CCOC[C@@H]3C)c12` (single isomer, unassigned) [Example 2c, (+)-7-(2-Methoxy-4,6-dimethylpyridin-3-yl)-1-((3R*,4R*)-3-methyltetrahydro-2H-pyran-4-yl)-1H-pyrazolo[4,3-c]quinoline-4(5H)-one] the IC50 [1] was 12.3 nM.
`COc1ncc(C)c(-c2ccc3c(c2)[nH]c(=O)c2cnn([C@H]4CC[C@@H](OC)CC4)c23)c1C` [Example 5a, 7-(2-methoxy-3,5-dimethylpyridin-4-yl)-1-(cis-4-methoxycyclohexyl)-1H-pyrazolo[4,3-c]quinoline-4(5H)-one] showed an IC50 [1] of 9.8 nM.
`COc1ncc(C)c(-c2ccc3c(c2)[nH]c(=O)c2cnn([C@H]4CC[C@H](OC)CC4)c23)c1C` [Example 5b, 7-(2-methoxy-3,5-dimethylpyridin-4-yl)-1-(trans-4-methoxycyclohexyl)-1H-pyrazolo[4,3-c]quinoline-4(5H)-one] was tested, and the “% CSF cGMP increase from vehicle control” value (cerebrospinal fluid cGMP) was 167%, the IC50 [1] was 12.7 nM and the “% hippocampal cGMP increase from vehicle control” value (“% hippocampal cGMP increase” for short) (hippocampal cGMP) was 41%.
Molecule “(+)-7-(2-Methoxy-3,5-dimethylpyridin-4-yl)-1-((3R*,4R*)-3-methyltetrahydro-2H-pyran-4-yl)-1H-pyrazolo[4,3-c]quinoline-4(5H)-one [Example 3b]” has an IC50 [1] of 25.6 nM.
Molecule “(+)-7-(2-Methoxy-3,5-dimethylpyridin-4-yl)-1-((3R*,4S*)-3-methyltetrahydro-2H-pyran-4-yl)-1H-pyrazolo[4,3-c]quinoline-4(5H)-one [Example 4b]” has an IC50 [1] of 39.1 nM.
In the case of “(+)-7-(2-methoxy-4,6-dimethylpyridin-3-yl)-1-((3R*,4S*)-3-methyltetrahydro-2H-pyran-4-yl)-1H-pyrazolo[4,3-c]quinoline-4(5H)-one [Example 2a]”, the IC50 [1] is reported as 11.6 nM.
In the case of “(+)-7-(6-Methoxy-2,4-dimethylpyridin-3-yl)-1-((3R*,4S*)-3-methyltetrahydro-2H-pyran-4-yl)-1H-pyrazolo[4,3-c]quinoline-4(5H)-one [Example 1c]”, the IC50 [1] is reported as 87.2 nM.
Molecule “(+)-7-(6-methoxy-2,4-dimethylpyridin-3-yl)-1-((3R*,4R*)-3-methyltetrahydro-2H-pyran-4-yl)-1H-pyrazolo[4,3-c]quinoline-4(5H)-one [Example 1a]” has an IC50 [1] of 48 nM.
With “(−)-7-(2-Methoxy-3,5-dimethylpyridin-4-yl)-1-((3R*,4S*)-3-methyltetrahydro-2H-pyran-4-yl)-1H-pyrazolo[4,3-c]quinoline-4(5H)-one [Example 4a]” the IC50 [1] was 5.8 nM.
With “(−)-7-(2-Methoxy-4,6-dimethylpyridin-3-yl)-1-((3R*,4S*)-3-methyltetrahydro-2H-pyran-4-yl)-1H-pyrazolo[4,3-c]quinoline-4(5H)-one [Example 2d]” the “% CSF cGMP increase from vehicle control” value (cerebrospinal fluid cGMP) was 183%, the IC50 [1] was 1.3 nM and the “% hippocampal cGMP increase” value (hippocampal cGMP) was 23%.
For “(−)-7-(2-methoxy-3,5-dimethylpyridin-4-yl)-1-((3R*,4R*)-3-methyltetrahydro-2H-pyran-4-yl)-1H-pyrazolo[4,3-c]quinoline-4(5H)-one [Example 3a]”, the “% CSF cGMP increase from vehicle control” value (cerebrospinal fluid cGMP) was 200%, the IC50 [1] was 6.9 nM and the “% hippocampal cGMP increase” value (hippocampal cGMP) was 58%.
In the case of “(−)-7-(6-Methoxy-2,4-dimethylpyridin-3-yl)-1-((3R*,4R*)-3-methyltetrahydro-2H-pyran-4-yl)-1H-pyrazolo[4,3-c]quinoline-4(5H)-one [Example 1b]”, the “% CSF cGMP increase from vehicle control” value (cerebrospinal fluid cGMP) is reported as 147%, the IC50 [1] is reported as 13.6 nM and the “% hippocampal cGMP increase” value (hippocampal cGMP) is reported as 44%.
In the case of “(−)-7-(6-Methoxy-2,4-dimethylpyridin-3-yl)-1-((3R*,4S*)-3-methyltetrahydro-2H-pyran-4-yl)-1H-pyrazolo[4,3-c]quinoline-4(5H)-one [Example 1d]”, the “% CSF cGMP increase from vehicle control” value (cerebrospinal fluid cGMP) is reported as 206%, the IC50 [1] is reported as 6.9 nM and the “% hippocampal cGMP increase” value (hippocampal cGMP) is reported as 61%.
